Reference: patent US7118895B2, “Process for producing aglycon by using diglycosidase and flavor-improved food containing the aglycon and converting agent to be used in the process” (Amano Enzyme Inc., priority 2000, dated 2006)

Assays:
[1] = system: Diglycosidase derived from P. multicolor; assay: Reactivity toward various isoflavone glycosides (HPLC); type: biochemical, Penicillium multicolor; design: glucoside / aglycon: unit not given here; details: 55 °C, pH 4.0
Procedure, shortened: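 Enzymes at 0.75 AU/mL in pH 4.0 acetate buffer were reacted at 55° C with individual isoflavone glycosides (substrate stock 2 mM in methanol) in 20 mM acetate pH 4.0. Aglycone release followed at 0, 1, 3 and 6 h: ethanol-quenched, ODS HPLC with UV 260 nm, quantified against calibration curves.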

[2] = system: Crude diglycosidase; assay: Examination of temperature in the conversion into isoflavone aglycons by diglycosidase using soybean materials; type: biochemical, Penicillium multicolor IAM7153; design: Decomposition efficiency of glycitin family in roasted soy flour / Decomposition efficiency of daidzin family in roasted soy flour / Decomposition efficiency of genistin family in soymilk / Decomposition efficiency of daidzin family in soymilk / Decomposition efficiency of glycitin family in defatted soybean / Decomposition efficiency of daidzin family in defatted soybean: concentration or dose not given beside the values
Procedure, shortened: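 Soybean materials (50 mg) suspended in 20 mM acetate buffer pH 4.0 reacted with crude diglycosidase diluted to 1.88 AU/mL at 80, 65, 55, 45, 37 or 30° C. Reactions stopped with ethanol at 0, 1, 3 and 6 h; isoflavone glycosides and aglycons in supernatant detected by HPLC.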

[3] = 30° C., heat treatment of enzyme no, reaction time 0 h
[4] = 30° C., heat treatment of enzyme no, reaction time 1 h
[5] = 30° C., heat treatment of enzyme no, reaction time 3 h
[6] = 30° C., heat treatment of enzyme no, reaction time 6 h
[7] = 30° C., heat treatment of enzyme yes, reaction time 6 h
[8] = 45° C., heat treatment of enzyme no, reaction time 0 h
[9] = 45° C., heat treatment of enzyme no, reaction time 1 h
[10] = 45° C., heat treatment of enzyme no, reaction time 3 h
[11] = 45° C., heat treatment of enzyme no, reaction time 6 h
[12] = 45° C., heat treatment of enzyme yes, reaction time 6 h
[13] = 45 °C, heat treatment of enzyme: no, 0 h
[14] = 45 °C, heat treatment of enzyme: no, 1 h
[15] = 45 °C, heat treatment of enzyme: no, 3 h
[16] = 45 °C, heat treatment of enzyme: no, 6 h
[17] = 45 °C, heat treatment of enzyme: yes, 6 h
[18] = 55° C., heat treatment of enzyme no, reaction time 0 h
[19] = 55° C., heat treatment of enzyme no, reaction time 1 h
[20] = 55° C., heat treatment of enzyme no, reaction time 3 h
[21] = 55° C., heat treatment of enzyme no, reaction time 6 h
[22] = 55° C., heat treatment of enzyme yes, reaction time 6 h
[23] = 55 °C, heat treatment of enzyme: no, 0 h
[24] = 55 °C, heat treatment of enzyme: no, 1 h
[25] = 55 °C, heat treatment of enzyme: no, 3 h
[26] = 55 °C, heat treatment of enzyme: no, 6 h
[27] = 55 °C, heat treatment of enzyme: yes, 6 h
[28] = 65° C., heat treatment of enzyme no, reaction time 0 h
[29] = 65° C., heat treatment of enzyme no, reaction time 1 h
[30] = 65° C., heat treatment of enzyme no, reaction time 3 h
[31] = 65° C., heat treatment of enzyme no, reaction time 6 h
[32] = 65° C., heat treatment of enzyme yes, reaction time 6 h
[33] = 65 °C, heat treatment of enzyme: no, 0 h
[34] = 65 °C, heat treatment of enzyme: no, 1 h
[35] = 65 °C, heat treatment of enzyme: no, 3 h
[36] = 65 °C, heat treatment of enzyme: no, 6 h
[37] = 65 °C, heat treatment of enzyme: yes, 6 h
[38] = 80° C., heat treatment of enzyme no, reaction time 0 h
[39] = 80° C., heat treatment of enzyme no, reaction time 1 h
[40] = 80° C., heat treatment of enzyme no, reaction time 3 h
[41] = 80° C., heat treatment of enzyme no, reaction time 6 h
[42] = 80° C., heat treatment of enzyme yes, reaction time 6 h
[43] = 80 °C, heat treatment of enzyme: no, 0 h
[44] = 80 °C, heat treatment of enzyme: no, 1 h
[45] = 80 °C, heat treatment of enzyme: no, 3 h
[46] = 80 °C, heat treatment of enzyme: no, 6 h
[47] = 80 °C, heat treatment of enzyme: yes, 6 h

aglycon ([1]; Reaction time 0 h): 0
glucoside ([1]; Reaction time 0 h): 100
aglycon ([1]; Reaction time 1 h): 50.8
glucoside ([1]; Reaction time 1 h): 49.2
aglycon ([1]; Reaction time 3 h): 60.1
glucoside ([1]; Reaction time 3 h): 39.9
aglycon ([1]; Reaction time 6 h): 61.5
glucoside ([1]; Reaction time 6 h): 38.5
Decomposition efficiency of daidzin family in concentrated soybean protein [2, 3]: not detected
Decomposition efficiency of daidzin family in defatted soybean [2, 3]: 43.3%
Decomposition efficiency of daidzin family in concentrated soybean protein [2, 4]: not detected
Decomposition efficiency of daidzin family in defatted soybean [2, 4]: 46.6%
Decomposition efficiency of daidzin family in concentrated soybean protein [2, 5]: not detected
Decomposition efficiency of daidzin family in defatted soybean [2, 5]: 45.2%
Decomposition efficiency of daidzin family in concentrated soybean protein [2, 6]: not detected
Decomposition efficiency of daidzin family in defatted soybean [2, 6]: 45.1%
Decomposition efficiency of daidzin family in concentrated soybean protein [2, 7]: not detected
Decomposition efficiency of daidzin family in defatted soybean [2, 7]: 45.4%
Decomposition efficiency of daidzin family in soymilk ([2]; 30 °C, heat treatment of enzyme: no, 0 h): 56.8%
Decomposition efficiency of daidzin family in soymilk ([2]; 30 °C, heat treatment of enzyme: no, 1 h): 58.2%
Decomposition efficiency of daidzin family in soymilk ([2]; 30 °C, heat treatment of enzyme: no, 3 h): 52.8%
Decomposition efficiency of daidzin family in soymilk ([2]; 30 °C, heat treatment of enzyme: no, 6 h): 46.2%
Decomposition efficiency of daidzin family in soymilk ([2]; 30 °C, heat treatment of enzyme: yes, 6 h): 56.1%
Decomposition efficiency of daidzin family in roasted soy flour ([2]; 35 °C, heat treatment of enzyme: no, 0 h): not detected
Decomposition efficiency of daidzin family in roasted soy flour ([2]; 35 °C, heat treatment of enzyme: no, 1 h): not detected
Decomposition efficiency of daidzin family in roasted soy flour ([2]; 35 °C, heat treatment of enzyme: no, 3 h): not detected
Decomposition efficiency of daidzin family in roasted soy flour ([2]; 35 °C, heat treatment of enzyme: no, 6 h): not detected
Decomposition efficiency of daidzin family in roasted soy flour ([2]; 35 °C, heat treatment of enzyme: yes, 6 h): not detected
Decomposition efficiency of daidzin family in concentrated soybean protein [2, 8]: not detected
Decomposition efficiency of daidzin family in defatted soybean [2, 8]: 43.3%
Decomposition efficiency of daidzin family in concentrated soybean protein [2, 9]: not detected
Decomposition efficiency of daidzin family in defatted soybean [2, 9]: 45.5%
Decomposition efficiency of daidzin family in concentrated soybean protein [2, 10]: not detected
Decomposition efficiency of daidzin family in defatted soybean [2, 10]: 43.7%
Decomposition efficiency of daidzin family in concentrated soybean protein [2, 11]: not detected
Decomposition efficiency of daidzin family in defatted soybean [2, 11]: 41.7%
Decomposition efficiency of daidzin family in concentrated soybean protein [2, 12]: not detected
Decomposition efficiency of daidzin family in defatted soybean [2, 12]: 44.3%
Decomposition efficiency of daidzin family in roasted soy flour [2, 13]: not detected
Decomposition efficiency of daidzin family in soymilk [2, 13]: 57.2%
Decomposition efficiency of daidzin family in roasted soy flour [2, 14]: not detected
Decomposition efficiency of daidzin family in soymilk [2, 14]: 50.2%
Decomposition efficiency of daidzin family in roasted soy flour [2, 15]: not detected
Decomposition efficiency of daidzin family in soymilk [2, 15]: 41.1%
Decomposition efficiency of daidzin family in roasted soy flour [2, 16]: not detected
Decomposition efficiency of daidzin family in soymilk [2, 16]: 30.2%
Decomposition efficiency of daidzin family in roasted soy flour [2, 17]: not detected
Decomposition efficiency of daidzin family in soymilk [2, 17]: 55.8%
Decomposition efficiency of daidzin family in concentrated soybean protein [2, 18]: not detected
Decomposition efficiency of daidzin family in defatted soybean [2, 18]: 43.3%
Decomposition efficiency of daidzin family in concentrated soybean protein [2, 19]: not detected
Decomposition efficiency of daidzin family in defatted soybean [2, 19]: 45.0%
Decomposition efficiency of daidzin family in concentrated soybean protein [2, 20]: not detected
Decomposition efficiency of daidzin family in defatted soybean [2, 20]: 42.7%
Decomposition efficiency of daidzin family in concentrated soybean protein [2, 21]: not detected
Decomposition efficiency of daidzin family in defatted soybean [2, 21]: 40.3%
Decomposition efficiency of daidzin family in concentrated soybean protein [2, 22]: not detected
Decomposition efficiency of daidzin family in defatted soybean [2, 22]: 44.1%
Decomposition efficiency of daidzin family in roasted soy flour [2, 23]: not detected
Decomposition efficiency of daidzin family in soymilk [2, 23]: 57.3%
Decomposition efficiency of daidzin family in roasted soy flour [2, 24]: not detected
Decomposition efficiency of daidzin family in soymilk [2, 24]: 50.9%
Decomposition efficiency of daidzin family in roasted soy flour [2, 25]: not detected
Decomposition efficiency of daidzin family in soymilk [2, 25]: 41.1%
Decomposition efficiency of daidzin family in roasted soy flour [2, 26]: not detected
Decomposition efficiency of daidzin family in soymilk [2, 26]: 31.1%
Decomposition efficiency of daidzin family in roasted soy flour [2, 27]: not detected
Decomposition efficiency of daidzin family in soymilk [2, 27]: 50.8%
Decomposition efficiency of daidzin family in concentrated soybean protein [2, 28]: not detected
Decomposition efficiency of daidzin family in defatted soybean [2, 28]: 43.3%
Decomposition efficiency of daidzin family in concentrated soybean protein [2, 29]: not detected
Decomposition efficiency of daidzin family in defatted soybean [2, 29]: 44.7%
Decomposition efficiency of daidzin family in concentrated soybean protein [2, 30]: not detected
Decomposition efficiency of daidzin family in defatted soybean [2, 30]: 41.6%
Decomposition efficiency of daidzin family in concentrated soybean protein [2, 31]: not detected
Decomposition efficiency of daidzin family in defatted soybean [2, 31]: 37.3%
Decomposition efficiency of daidzin family in concentrated soybean protein [2, 32]: not detected
Decomposition efficiency of daidzin family in defatted soybean [2, 32]: 35.2%
Decomposition efficiency of daidzin family in roasted soy flour [2, 33]: not detected
Decomposition efficiency of daidzin family in soymilk [2, 33]: 56.8%
Decomposition efficiency of daidzin family in roasted soy flour [2, 34]: not detected
Decomposition efficiency of daidzin family in soymilk [2, 34]: 51.7%
Decomposition efficiency of daidzin family in roasted soy flour [2, 35]: not detected
Decomposition efficiency of daidzin family in soymilk [2, 35]: 43.9%
Decomposition efficiency of daidzin family in roasted soy flour [2, 36]: not detected
Decomposition efficiency of daidzin family in soymilk [2, 36]: 35.3%
Decomposition efficiency of daidzin family in roasted soy flour [2, 37]: not detected
Decomposition efficiency of daidzin family in soymilk [2, 37]: 42.4%
Decomposition efficiency of daidzin family in concentrated soybean protein [2, 38]: not detected
Decomposition efficiency of daidzin family in defatted soybean [2, 38]: 43.3%
Decomposition efficiency of daidzin family in concentrated soybean protein [2, 39]: not detected
Decomposition efficiency of daidzin family in defatted soybean [2, 39]: 39.8%
Decomposition efficiency of daidzin family in concentrated soybean protein [2, 40]: not detected
Decomposition efficiency of daidzin family in defatted soybean [2, 40]: 28.8%
Decomposition efficiency of daidzin family in concentrated soybean protein [2, 41]: not detected
Decomposition efficiency of daidzin family in defatted soybean [2, 41]: 17.8%
Decomposition efficiency of daidzin family in concentrated soybean protein [2, 42]: not detected
Decomposition efficiency of daidzin family in defatted soybean [2, 42]: 17.4%
Decomposition efficiency of daidzin family in roasted soy flour [2, 43]: not detected
Decomposition efficiency of daidzin family in soymilk [2, 43]: 57.2%
Decomposition efficiency of daidzin family in roasted soy flour [2, 44]: not detected
Decomposition efficiency of daidzin family in soymilk [2, 44]: 50.8%
Decomposition efficiency of daidzin family in roasted soy flour [2, 45]: not detected
Decomposition efficiency of daidzin family in soymilk [2, 45]: 36.4%
Decomposition efficiency of daidzin family in roasted soy flour [2, 46]: not detected
Decomposition efficiency of daidzin family in soymilk [2, 46]: 23.0%
Decomposition efficiency of daidzin family in roasted soy flour [2, 47]: not detected
Decomposition efficiency of daidzin family in soymilk [2, 47]: 21.8%
Compound: O=C(O)CC(=O)OC[C@H]1O[C@@H](Oc2ccc3c(=O)c(-c4ccc(O)cc4)coc3c2)[C@H](O)[C@@H](O)[C@@H]1O [malonyldaidzin, 6″-O-malonyldaidzin]
